Experimental data as given in US11292971B2, “Dissolution of hexamine in non-aqueous solvent” (ECOLAB USA INC., priority 2017, dated 2022).

Legend:
[1] = Dissolution of hexamine in cinnamyl alcohol and glycerin: slurry left two days, clear supernatant analyzed for composition; format: physicochemical; settings: about room temperature
Procedure: Slurries were prepared by mixing hexamine in cinnamyl alcohol or a mixture of cinnamyl alcohol and glycerin at about room temperature. The compositions were then allowed to sit undisturbed for two days and the clear supernatant decanted off and analyzed for composition. As the results below illustrate, clear stable solutions of hexamine in various ratios of glycerin and cinnamyl alcohol were obtained.

[2] = 20° C., cited from earlier work

C1N2CN3CN1CN(C2)C3 [Hexamine, 1,3,5,7-tetraazatricyclo[3.3.1.1^3,7]decane]
Hexamine in stable solution ([1]; cinnamyl alcohol 16, glycerin (<1% water) 76 weight %): 8 Weight % | Hexamine in stable solution ([1]; cinnamyl alcohol 32, glycerin (<1% water) 63 weight %): 5 Weight % | Hexamine in stable solution ([1]; cinnamyl alcohol 37, glycerin (<1% water) 55 weight %): 8 Weight % | Hexamine in stable solution ([1]; cinnamyl alcohol 50, glycerin (<1% water) 43 weight %): 7 Weight % | Hexamine in stable solution ([1]; cinnamyl alcohol 59, glycerin (<1% water) 34 weight %): 7 Weight % | Hexamine in stable solution ([1]; cinnamyl alcohol 68, glycerin (<1% water) 22 weight %): 10 Weight % | Hexamine in stable solution ([1]; cinnamyl alcohol 78, glycerin (<1% water) 11 weight %): 11 Weight % | Hexamine in stable solution ([1]; cinnamyl alcohol 84, glycerin (<1% water) 6 weight %): 10 Weight % | Hexamine in stable solution ([1]; cinnamyl alcohol 93, glycerin (<1% water) 0 weight %): 7 Weight % | solubility in acetone ([2]; acetone): 0.65 g | solubility in benzene ([2]; benzene): 0.23 g | solubility in chloroform ([2]; chloroform): 13.4 g | solubility in ethanol ([2]; ethanol): 2.89 g | solubility in ether ([2]; ether): 0.06 g | solubility in methanol ([2]; methanol): 7.25 g | solubility in petroleum ether ([2]; petroleum ether): near zero | solubility in xylene ([2]; xylene): 0.14 g
